Laboratory results: patent US20140377219A1, “HIV INHIBITORS” (New york Blood Center, Inc., priority 2011, published 2014)
Where a name gives a salt, the structure may show the parent alone. Read-outs that look alike come from different tables or passages of the source.

Assays:
[1] = system: laboratory-adapted HIV-1 IIIB strain; details: read-out: MT-2 Cells IC50 (μM ± SD); multi-cycle assay, MT-2 cells, HIV-1 IIIB
Experimental: In brief, 1×10^4 MT-2 cells were infected with HIV-1 at 100 TCID50 (50% tissue culture infective dose) (0.01MOI) in 200 μl medium in the presence or absence of small molecules at graded concentrations and incubated overnight. The culture supernatants were then removed and replaced with fresh media. On the fourth day post-infection, 100 μl of culture supernatants were collected from each well, mixed with equal volume of 5% Triton X-100 and tested for p24 antigen by sandwich-ELISA. The percent inhibition of p24 production and IC50 values were calculated by the GraphPad Prism software (GraphPad Software Inc.).

MT-2 cells = test: Cytotoxicity in MT-2 cells (XTT); type: cell-based
Experimental: Cytotoxicity of small molecules in MT-2 cells and PBMC was measured by the XTT ((sodium 3′-(1-(phenylamino)-carbonyl)-3,4-tetrazolium-bis(4-methoxy-6-nitro)benzene-sulfonic acid hydrate)) method. Briefly, for MT-2 cells, 100 μl of a small molecule at graded concentrations was added to an equal volume of cells (10^5 cells/ml) in 96-well plates followed by incubation at 37° C. for four days, which ran parallel with the neutralization assay in MT-2 (except medium was added instead of virus). In the case of PBMC, 5×10^5 cells/ml was used and the cytotoxicity was measured after seven days. […] The percentage cytotoxicity and the CC50 values were calculated as described above.

TZM-bl cells = test: Cytotoxicity in TZM-bl cells (XTT); type: cell-based
Experimental: The cytotoxicity of small molecules in TZM-bl cells was measured by a colorimetric method using XTT (sodium 3′-(1-(phenylamino)-carbonyl)-3,4-tetrazolium-bis(4-methoxy-6-nitro)benzenesulfonic acid hydrate), a light yellowish tetrazolium dye. Briefly, 100 μl of a compound at graded concentrations was added to equal volume of cells (10^5/ml) in wells of 96-well plates followed by incubation at 37° C. for 3 days and addition of XTT (PolySciences, Inc., Warrington, Pa.).

[2] = TZM-bl cells, XTT, 3 days, read-out: TZM-bl cells CC50 (μM ± SD)
[3] = MT-2 cells, XTT, four days, read-out: MT-2 Cells CC50
[4] = at the dose given as CC50 bound

Structure (SMILES) | IC50 [1] [µM] | CC50 (MT-2 cells) [µM] | CC50 (TZM-bl cells) [µM] | % toxicity at that dose (number in parenthesis), MT-2 cells (MT-2 cells) [%] | CC50 (TZM-bl cells; [2]) [µM] | CC50 (MT-2 cells; [3]) [µM] | % toxicity at that dose (number in parenthesis), TZM-bl cells (TZM-bl cells; [4]) [%] | % toxicity at that dose (number in parenthesis), TZM-bl cells (TZM-bl cells) | % toxicity at that dose (number in parenthesis), MT-2 cells (MT-2 cells; [4]) [%]
Cc1nc(C(NC(=O)C(=O)Nc2ccc(Cl)cc2)C2CCCNC2)sc1CO (centres unmarked) [Compound 7, N^1-(4-chlorophenyl)-N^2-((5-(hydroxymethyl)-4-methylthiazol-2-yl)(piperidin-3-yl)methyl)oxalamide.2HCl] | 12 ± 1.1 | > 81 | ~60.2 |  |  |  |  |  | 
Cc1nc(C(NC(=O)C(=O)Nc2ccc(Cl)cc2)C2CCNCC2)sc1CO (centres unmarked) [Compound 8, N^1-(4-chlorophenyl)-N^2-((5-(hydroxymethyl)-4-methylthiazol-2-yl)(piperidin-4-yl)methyl)oxalamide.2HCl] | 29.8 ± 3.5 | > 81 | ~81 |  |  |  |  |  | 
Cc1nc(C(NC(=O)C(=O)Nc2ccc(Cl)cc2)C2CCCCN2)sc1CCO.O=CO (centres unmarked) [Compound 9, N^1-(4-chlorophenyl)-N^2-((5-(2-hydroxyethyl)-4-methylthiazol-2-yl)(piperidin-2-yl)methyl)oxalamide.HCOOH] | 4.2 ± 0.2 | > 62 |  | 0 |  |  |  |  | 
Cc1nc(C(NC(=O)C(=O)Nc2ccc(Cl)cc2)C2CCCNC2)sc1CCO (centres unmarked) [Compound 10, N^1-(4-chlorophenyl)-N^2-((5-(2-hydroxyethyl)-4-methylthiazol-2-yl)(piperidin-3-yl)methyl)oxalamide.2HCl] | 13.1 ± 2.4 | > 78.5 | ~59.4 |  |  |  |  |  | 
Cc1nc(C(NC(=O)C(=O)Nc2ccc(Cl)cc2)C2CCNCC2)sc1CCO (centres unmarked) [Compound 11, N^1-(4-chlorophenyl)-N^2-((5-(2-hydroxyethyl)-4-methylthiazol-2-yl)(piperidin-4-yl)methyl)oxalamide.2HCl] | 30.5 ± 3.4 | > 78.5 | ~85.4 |  |  |  |  |  | 
Cc1nc(C(NC(=O)C(=O)Nc2ccc(Cl)cc2)C2CCCCN2C)sc1CCO (centres unmarked) [Compound 12, N^1-(4-chlorophenyl)-N^2-((5-(2-hydroxyethyl)-4-methylthiazol-2-yl)(1-methylpiperidin-2-yl)methyl)oxalamide] |  |  |  |  | 36 ± 3.3 |  |  |  | 
Cc1nc(C(NC(=O)C(=O)Nc2ccc(Cl)cc2)C2CCCN2)sc1CO (centres unmarked) [Compound 14, N^1-(4-chlorophenyl)-N^2-((5-(hydroxymethyl)-4-methylthiazol-2-yl)(pyrrolidin-2-yl)methyl)oxalamide.HCOOH] | 15.4 ± 2.6 | ~45 | 12.4 ± 0.7 |  |  |  |  |  | 
Cc1nc(C(NC(=O)C(=O)Nc2ccc(Cl)cc2)C2CCCN2)sc1CCO (centres unmarked) [Compound 15, N^1-(4-chlorophenyl)-N^2-((5-(2-hydroxyethyl)-4-methylthiazol-2-yl)(pyrrolidin-2-yl)methyl)oxalamide.HCOOH] | 16.2 ± 1.7 | ~42 | ~4.9 |  |  |  |  |  | 
CNCC(NC(=O)C(=O)Nc1ccc(Cl)cc1)c1nc(C)c(CCO)s1 (centres unmarked) [Compound 16, N^1-(4-chlorophenyl)-N^2-(1-(5-(2-hydroxyethyl)-4-methylthiazol-2-yl)-2-(methylamino)ethyl)oxalamide.2HCl] | 24.3 ± 2.2 | > 43 | 16.6 ± 1 |  |  |  |  |  | 
COC(=O)[C@@H]1C[C@@H](NC(=O)C(=O)Nc2ccc(Cl)cc2)[C@H](c2ccccc2)N1 [Compound 18, (2S,4R,5S)-methyl 4-(2-(4-chlorophenylamino)-2-oxoacetamido)-5-phenyl pyrrolidine-2-carboxylate] | > 24.9 |  |  |  | > 99.6 | > 99.6 |  |  | 
Cc1nc(C(NC(=O)C(=O)Nc2ccc(C(F)(F)F)cc2)C2CCCCN2)sc1CO.Cl.Cl (centres unmarked) [Compound 20, N^1-((5-(hydroxymethyl)-4-methylthiazol-2-yl)(piperidin-2-yl)methyl)-N^2-(4-(trifluoromethyl)phenyl)oxalamide.2HCl] | 4.6 ± 0.3 |  |  |  | > 75.5 | > 75.5 | 10 |  | 
Cc1nc(C(NC(=O)C(=O)Nc2ccc(F)cc2F)C2CCCCN2)sc1CO (centres unmarked) [Compound 21, N^1-(2,4-difluorophenyl)-N^2-((5-(hydroxymethyl)-4-methylthiazol-2-yl)(piperidin-2-yl)methyl)oxalamide.HCl] | ~110 |  |  |  | > 87 | > 110 |  |  | 
Cc1nc(C(NC(=O)C(=O)Nc2ccc(F)c(F)c2)C2CCCCN2)sc1CO.Cl (centres unmarked) [Compound 22, N^1-(3,4-difluorophenyl)-N^2-((5-(hydroxymethyl)-4-methylthiazol-2-yl)(piperidin-2-yl)methyl)oxalamide.HCl] | 14 ± 3.8 |  |  |  | > 87 | > 87 | 0 |  | 
CC(=O)c1ccc(NC(=O)C(=O)NC(c2nc(C)c(CO)s2)C2CCCCN2)cc1 (centres unmarked) [Compound 23, N^1-(4-acetylphenyl)-N^2-((5-(hydroxymethyl)-4-methylthiazol-2-yl)(piperidin-2-yl)methyl)oxalamide.HCl] | ~107 | > 107 | > 86 |  |  |  |  |  | 
Cc1nc(C(NC(=O)C(=O)Nc2ccc(F)c(Cl)c2)C2CCCCN2)sc1CO.Cl.Cl (centres unmarked) [Compound 24, N^1-(3-chloro-4-fluorophenyl)-N^2-((5-(hydroxymethyl)-4-methylthiazol-2-yl)(piperidin-2-yl)methyl)oxalamide.2HCl] | 9.5 ± 1.4 | > 77.8 | > 77.8 |  |  |  |  | >77.8 (0%) | 
Cc1nc(C(NC(=O)C(=O)Nc2ccc(F)cc2)C2CCCCN2)sc1CO.Cl (centres unmarked) [Compound 25, N^1-(4-fluorophenyl)-N^2-((5-(hydroxymethyl)-4-methylthiazol-2-yl)(piperidin-2-yl)methyl)oxalamide.HCl] | 48 ± 5.5 | > 113 | > 90 |  |  |  | 0 |  | 
Cc1ccc(NC(=O)C(=O)NC(c2nc(C)c(CO)s2)C2CCCCN2)c(F)c1 (centres unmarked) [Compound 26, N^1-(2-fluoro-4-methylphenyl)-N^2-((5-(hydroxymethyl)-4-methylthiazol-2-yl)(piperidin-2-yl)methyl)oxalamide.HCl] | ~66 |  |  |  | > 88 | > 109 |  |  | 
Cc1nc(C(NC(=O)C(=O)NC2CCCCCC2)C2CCCCN2)sc1CO (centres unmarked) [Compound 29, N^1-cycloheptyl-N^2-((5-(hydroxymethyl)-4-methylthiazol-2-yl)(piperidin-2-yl)methyl)oxalamide.HCl] | 39.3 ± 5 |  |  |  | > 90 | > 90 |  |  | 
Cc1nc(C(NC(=O)C(=O)Nc2ccc(Cl)cc2)C2CCCCN2)sc1CCO.O=CO (centres unmarked) [Compound 30, N^1-(4-chlorophenyl)-N^2-((5-(2-hydroxyethyl)-4-methylthiazol-2-yl)(piperidin-2-yl)methyl)oxalamide.HCOOH] | 4.2 ± 0.3 |  |  |  | 32.8 ± 0.6 | > 62 |  |  | 0
Cc1nc(C(NC(=O)C(=O)Nc2ccc(C(F)(F)F)cc2)C2CCCCN2)sc1CCO.Cl.Cl (centres unmarked) [Compound 31, N^1-((5-(2-hydroxyethyl)-4-methylthiazol-2-yl)(piperidin-2-yl)methyl)-N^2-(4-(trifluoromethyl)phenyl)oxalamide.2HCl] | 17.4 ± 5.7 |  |  |  | > 74 | > 39 | 35 |  | 
Cc1nc(C(NC(=O)C(=O)Nc2ccc(F)cc2F)C2CCCCN2)sc1CCO (centres unmarked) [Compound 32, N^1-(2,4-difluorophenyl)-N^2-((5-(2-hydroxyethyl)-4-methylthiazol-2-yl)(piperidin-2-yl)methyl)oxalamide.HCl] | > 105 | > 105 |  |  | > 84 |  |  |  | 
Cc1nc(C(NC(=O)C(=O)Nc2ccc(F)c(F)c2)C2CCCCN2)sc1CCO.Cl.Cl (centres unmarked) [Compound 33, N^1-(3,4-difluorophenyl)-N^2-((5-(2-hydroxyethyl)-4-methylthiazol-2-yl)(piperidin-2-yl)methyl)oxalamide.2HCl] | 24.1 ± 4.6 |  |  |  | > 78.2 | > 78.2 | 10 |  | 
CC(=O)c1ccc(NC(=O)C(=O)NC(c2nc(C)c(CCO)s2)C2CCCCN2)cc1 (centres unmarked) [Compound 34, N^1-(4-acetylphenyl)-N^2-((5-(2-hydroxyethyl)-4-methylthiazol-2-yl)(piperidin-2-yl)methyl)oxalamide.2HCl] | 24.5 ± 1.5 | > 48.3 | > 77.3 |  |  |  |  |  | 
Cc1nc(C(NC(=O)C(=O)Nc2ccc(F)c(Cl)c2)C2CCCCN2)sc1CCO.Cl.Cl (centres unmarked) [Compound 35, N^1-(3-chloro-4-fluorophenyl)-N^2-((5-(2-hydroxyethyl)-4-methylthiazol-2-yl)(piperidin-2-yl)methyl)oxalamide.2HCl] | 19.5 ± 1.8 | ~94.7 | > 75.8 |  |  |  |  | >75.8 (20%) | 
Cc1nc(C(NC(=O)C(=O)Nc2ccc(F)cc2)C2CCCCN2)sc1CCO (centres unmarked) [Compound 36, N^1-(4-fluorophenyl)-N^2-((5-(2-hydroxyethyl)-4-methylthiazol-2-yl)(piperidin-2-yl)methyl)oxalamide.HCl] |  | ~109 | > 88 |  |  |  |  |  | 
Cc1ccc(NC(=O)C(=O)NC(c2nc(C)c(CCO)s2)C2CCCCN2)c(F)c1 (centres unmarked) [Compound 37, N^1-(2-fluoro-4-methylphenyl)-N^2-((5-(2-hydroxyethyl)-4-methylthiazol-2-yl)(piperidin-2-yl)methyl)oxalamide.2HCl] | 45.8 ± 3.5 |  |  |  | > 78.8 | > 78.8 |  |  | 
